In this assay the test system is P388. The experiment in a line: Cytotoxicity against mouse P388 cells. It is filed as functional.
Take `C=C(C(=O)C[C@@H](C)[C@H]1CC[C@@]2(C)C3=C(CC[C@]12C)[C@@]1(C)CC[C@@H](OC(=O)CC(=O)O)C(C)(C)[C@@H]1CC3)C(C)C(=O)O` (stereo not given in full): the Activity was above 125 µg/mL.

Consider `CC(C)=CCC[C@@H](C(=O)O)[C@H]1[C@H](O)C[C@@]2(C)C3=CC[C@H]4C(C)(C)[C@H](O)CC[C@]4(C)C3=CC[C@]12C`, for which the Activity is above 125 µg/mL.

As for `C/C(=C\CC[C@@H](C(=O)O)[C@H]1[C@H](O)C[C@@]2(C)C3=CC[C@H]4C(C)(C)[C@H](O)CC[C@]4(C)C3=CC[C@]12C)CO`, the Activity is above 125 µg/mL.

For `CC(C)=CCC[C@@H](C(=O)O)[C@H]1[C@H](O)C[C@@]2(C)C3=CC[C@H]4C(C)(C)C(=O)CC[C@]4(C)C3=CC[C@]12C`, the Activity worked out at 237 µM.

`CC(C(=O)O)[C@@H](C)C(=O)C[C@@H](C)[C@H]1CC[C@@]2(C)C3=C(CC[C@]12C)[C@@]1(C)CC[C@@H](OC(=O)CC(=O)O)C(C)(C)[C@@H]1CC3` (stereo not given in full) [CARBOXYACETYLQUERCINIC ACID] came in with an Activity above 125 µg/mL.

Values taken from ChEMBL document CHEMBL1158047, “Lanostane triterpenoids from the Sri Lankan basidiomycete Ganoderma applanatum” (2006).
